The compounds below were run on Rattus norvegicus (assay: Total iron output induced by the compound in bile (non-iron-overloaded bile duct cannulated rat), after 9 hours of po administration.).
Assay type: functional

| Compound | Iron output |
| --- | --- |
| CC(=O)N(O)CCCCCNC(=O)CCC(=O)N(O)CCCCCNC(=O)CCC(=O)N(O)CCCCCN [DEFEROXAMINE] | 76.8 |

These compounds were tested on Rattus norvegicus (assay: Total iron output induced by the compound in bile (non-iron-overloaded bile duct cannulated rat), after 24 hours of sc administration.).
Assay type: functional

| Compound | Iron output |
| --- | --- |
| CC(=O)N(O)CCCCCNC(=O)CCC(=O)N(O)CCCCCNC(=O)CCC(=O)N(O)CCCCCN [DEFEROXAMINE] | 228.4 |

Each compound was assayed on Rattus norvegicus (assay: Total iron output induced by the compound in bile (non-iron-overloaded bile duct cannulated rat), after 21 hours of po administration.).
Assay type: functional

| Compound | Iron output |
| --- | --- |
| CC(=O)N(O)CCCCCNC(=O)CCC(=O)N(O)CCCCCNC(=O)CCC(=O)N(O)CCCCCN [DEFEROXAMINE] | 128.7 |

The compounds below were run on Rattus norvegicus (assay: Total iron output induced by the compound in bile (non-iron-overloaded bile duct cannulated rat), after 24 hours of po administration.).
Assay type: functional

| Compound | Iron output |
| --- | --- |
| CC(=O)N(O)CCCCCNC(=O)CCC(=O)N(O)CCCCCNC(=O)CCC(=O)N(O)CCCCCN [DEFEROXAMINE] | 135 |

The compounds below were run on Rattus norvegicus (assay: Total iron output induced by the compound in bile (non-iron-overloaded bile duct cannulated rat), after 21 hours of sc administration.).
Assay type: functional

| Compound | Iron output |
| --- | --- |
| CC(=O)N(O)CCCCCNC(=O)CCC(=O)N(O)CCCCCNC(=O)CCC(=O)N(O)CCCCCN [DEFEROXAMINE] | 219.8 |

Each compound was assayed on Rattus norvegicus (assay: Total iron output induced by the compound in bile (non-iron-overloaded bile duct cannulated rat), after 18 hours of po administration.).
Assay type: functional

| Compound | Iron output |
| --- | --- |
| CC(=O)N(O)CCCCCNC(=O)CCC(=O)N(O)CCCCCNC(=O)CCC(=O)N(O)CCCCCN [DEFEROXAMINE] | 119.8 |

These compounds were tested on Rattus norvegicus (assay: Total iron output induced by the compound in non-iron-overloaded bile duct cannulated rat(Treated-control), after 24 hours of sc administration.).
Assay type: functional

| Compound | Iron output |
| --- | --- |
| CC(=O)N(O)CCCCCNC(=O)CCC(=O)N(O)CCCCCNC(=O)CCC(=O)N(O)CCCCCN [DEFEROXAMINE] | 212.4 |

These compounds were tested on Rattus norvegicus (assay: Total iron output induced by the compound in bile (non-iron-overloaded bile duct cannulated rat), after 6 hours of po administration.).
Assay type: functional

| Compound | Iron output |
| --- | --- |
| CC(=O)N(O)CCCCCNC(=O)CCC(=O)N(O)CCCCCNC(=O)CCC(=O)N(O)CCCCCN [DEFEROXAMINE] | 43.9 |

Each compound was assayed on Rattus norvegicus (assay: Total iron output induced by the compound in bile (non-iron-overloaded bile duct cannulated rat), after 3 hours of sc administration.).
Assay type: functional

| Compound | Iron output |
| --- | --- |
| CC(=O)N(O)CCCCCNC(=O)CCC(=O)N(O)CCCCCNC(=O)CCC(=O)N(O)CCCCCN [DEFEROXAMINE] | 43.6 |

The compounds below were run on Rattus norvegicus (assay: Total iron output induced by the compound in bile (non-iron-overloaded bile duct cannulated rat), after 15 hours of sc administration.).
Assay type: functional

| Compound | Iron output |
| --- | --- |
| CC(=O)N(O)CCCCCNC(=O)CCC(=O)N(O)CCCCCNC(=O)CCC(=O)N(O)CCCCCN [DEFEROXAMINE] | 196.2 |

What follows are compounds tested on Rattus norvegicus (assay: Total iron output induced by the compound in bile (non-iron-overloaded bile duct cannulated rat), after 15 hours of po administration.).
Assay type: functional

| Compound | Iron output |
| --- | --- |
| CC(=O)N(O)CCCCCNC(=O)CCC(=O)N(O)CCCCCNC(=O)CCC(=O)N(O)CCCCCN [DEFEROXAMINE] | 110.8 |

These compounds were tested on Rattus norvegicus (assay: Total iron output induced by the compound in bile (non-iron-overloaded bile duct cannulated rat), after 9 hours of sc administration.).
Assay type: functional

| Compound | Iron output |
| --- | --- |
| CC(=O)N(O)CCCCCNC(=O)CCC(=O)N(O)CCCCCNC(=O)CCC(=O)N(O)CCCCCN [DEFEROXAMINE] | 152.8 |

What follows are compounds tested on Rattus norvegicus (assay: Total iron output induced by the compound in non-iron-overloaded bile duct cannulated rat, after 24 hours of sc administration.).
Assay type: functional

| Compound | Iron output |
| --- | --- |
| CC(=O)N(O)CCCCCNC(=O)CCC(=O)N(O)CCCCCNC(=O)CCC(=O)N(O)CCCCCN [DEFEROXAMINE] | 277.6 |

What follows are compounds tested on Rattus norvegicus (assay: Total iron output induced by the compound in bile (non-iron-overloaded bile duct cannulated rat), after 12 hours of sc administration.).
Assay type: functional

| Compound | Iron output |
| --- | --- |
| CC(=O)N(O)CCCCCNC(=O)CCC(=O)N(O)CCCCCNC(=O)CCC(=O)N(O)CCCCCN [DEFEROXAMINE] | 173.9 |

These compounds were tested on Rattus norvegicus (assay: Total iron output induced by the compound in non-iron-overloaded bile duct cannulated rat, after 24 hours of po administration.).
Assay type: functional

| Compound | Iron output |
| --- | --- |
| CC(=O)N(O)CCCCCNC(=O)CCC(=O)N(O)CCCCCNC(=O)CCC(=O)N(O)CCCCCN [DEFEROXAMINE] | 151.5 |

The compounds below were run on Rattus norvegicus (assay: Total iron output induced by the compound in bile (non-iron-overloaded bile duct cannulated rat), after 12 hours of po administration.).
Assay type: functional

| Compound | Iron output |
| --- | --- |
| CC(=O)N(O)CCCCCNC(=O)CCC(=O)N(O)CCCCCNC(=O)CCC(=O)N(O)CCCCCN [DEFEROXAMINE] | 97.1 |

What follows are compounds tested on Rattus norvegicus (assay: Total iron output induced by the compound in urine (non-iron-overloaded bile duct cannulated rat), after 24 hours of sc administration.).
Assay type: functional

| Compound | Iron output |
| --- | --- |
| CC(=O)N(O)CCCCCNC(=O)CCC(=O)N(O)CCCCCNC(=O)CCC(=O)N(O)CCCCCN [DEFEROXAMINE] | 49.2 |

The compounds below were run on Rattus norvegicus (assay: Total iron output induced by the compound in bile (non-iron-overloaded bile duct cannulated rat), after 18 hours of sc administration.).
Assay type: functional

| Compound | Iron output |
| --- | --- |
| CC(=O)N(O)CCCCCNC(=O)CCC(=O)N(O)CCCCCNC(=O)CCC(=O)N(O)CCCCCN [DEFEROXAMINE] | 210.7 |

These compounds were tested on Rattus norvegicus (assay: Total iron output induced by the compound in urine (non-iron-overloaded bile duct cannulated rat), after 24 hours of po administration.).
Assay type: functional

| Compound | Iron output |
| --- | --- |
| CC(=O)N(O)CCCCCNC(=O)CCC(=O)N(O)CCCCCNC(=O)CCC(=O)N(O)CCCCCN [DEFEROXAMINE] | 16.5 |

Each compound was assayed on Rattus norvegicus (assay: Total iron output induced by the compound in non-iron-overloaded bile duct cannulated rat(Treated-control), after 24 hours of po administration.).
Assay type: functional

| Compound | Iron output |
| --- | --- |
| CC(=O)N(O)CCCCCNC(=O)CCC(=O)N(O)CCCCCNC(=O)CCC(=O)N(O)CCCCCN [DEFEROXAMINE] | 86.3 |

These compounds were tested on Rattus norvegicus (assay: Total iron output induced by the compound in bile (non-iron-overloaded bile duct cannulated rat), after 3 hours of po administration.).
Assay type: functional

| Compound | Iron output |
| --- | --- |
| CC(=O)N(O)CCCCCNC(=O)CCC(=O)N(O)CCCCCNC(=O)CCC(=O)N(O)CCCCCN [DEFEROXAMINE] | 14.7 |

Each compound was assayed on Rattus norvegicus (assay: Total iron output induced by the compound in bile (non-iron-overloaded bile duct cannulated rat), after 6 hours of sc administration.).
Assay type: functional

| Compound | Iron output |
| --- | --- |
| CC(=O)N(O)CCCCCNC(=O)CCC(=O)N(O)CCCCCNC(=O)CCC(=O)N(O)CCCCCN [DEFEROXAMINE] | 105.9 |
